Source: patent publication US8399681B2, “Substituted aminothiazolone indazoles as estrogen related receptor-alpha modulators” (Janssen Pharmaceutica NV, priority 2009, dated 2013)

Target: T1, ERR1 (also known as ERR-α or ERR-1) (Homo sapiens, UniProt P11474)
T1 sequence (P11474 193-421 limits assumed): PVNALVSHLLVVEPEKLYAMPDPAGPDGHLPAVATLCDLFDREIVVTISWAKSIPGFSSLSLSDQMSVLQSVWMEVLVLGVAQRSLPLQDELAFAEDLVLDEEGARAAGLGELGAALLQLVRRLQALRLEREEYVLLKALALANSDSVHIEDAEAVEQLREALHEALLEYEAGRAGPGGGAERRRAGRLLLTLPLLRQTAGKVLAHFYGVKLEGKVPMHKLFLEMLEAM
Experiment: TR-FRET assay (disruption of co-activator peptide binding)
Assay type: biochemical
Conditions: 6His-tagged ERR1 LBD, GST-hSRC2 co-activator polypeptide; average of 3 independent experiments
Description: Time-Resolved Fluorescence Resonance Energy Transfer (TR-FRET) experiments were performed to examine the functional response of ERR1 (also known as ERR-α or ERR-1) ligands. The TR-FRET assay described herein relied on the conformation of ERR1 for binding to a co-activator peptide: when a test compound binds to ERR1 and alters its conformation, it can disrupt the binding of the co-activator peptide. The components of this homogeneous secondary assay included: the ^6His-tagged-ERR1LBD, a GST-labeled-hSRC2 co-activator polypeptide and a fluorescent donor/acceptor pair from CIS bio international htrf/bioassays (Bedford, Mass.) using both an α-GST Europium Cryptate (Eu) label and an α^6His-XL665 (allophycocyanin) fluorophore.
For TR-FRET measurements, the reaction was buffered in 25 mM Tris pH 8, 2.5 mM Hepes, 20 mM KCl, 1 mM DTT, and 0.05 mg/mL BSA (-lipids). The final concentrations of reagents were 6 nM of ERR1LBD, 6 nM GST-SRC-2 peptide, 30 nM Eu cryptate, and 7.5 nM XL665. Reactions were allowed to reach equilibrium at 25° C. for 4-18 hours before collecting data on the Analyst from LJL Biosystems (Molecular Devices Sunnyvale, Calif.). As a time-resolved method, the samples were excited at […] and emission was collected for 1 ms at both 615 and 665 nm with delays of 400 and 75 μs, respectively. Dose response curves were fitted using a hyperbolic equation and the data reported is the average of 3 independent experiments.

Row | SMILES | EC50 [µM]
1 | CC(N[C@H]1CCN(C2=NC(=O)/C(=C/c3ccc4c(cnn4Cc4ccc(Cl)cc4C(F)(F)F)c3)S2)C1)C(N)=O (stereo partly drawn) [Example 265, N-2-{(3S)-1-[5-({1-[4-Chloro-2-(trifluoromethyl)benzyl]-1H-indazol-5-yl}methylidene)-4-oxo-4,5-dihydro-1,3-thiazol-2-yl]pyrrolidin-3-yl}alaninamide] | 0.038
2 | O=C1N=C(N2CC[C@H](NC(=O)C(F)(F)F)C2)S/C1=C\c1ccc2c(cnn2Cc2ccc(Cl)cc2C(F)(F)F)c1 (stereo in doubt) [Example 116, N-(1-{5-[1-(4-Chloro-2-trifluoromethyl-benzyl)-1H-indazol-5-ylmethylene]-4-oxo-4,5-dihydro-thiazol-2-yl}-pyrrolidin-3-yl)-2,2,2-trifluoro-acetamide] | 0.011
3 | CC(=O)N[C@@H]1C[C@H](CO)N(C2=NC(=O)/C(=C/c3ccc4c(cnn4Cc4ccc(Cl)cc4C(F)(F)F)c3)S2)C1 [Example 261, N-{(3R,5R)-1-[5-({1-[4-Chloro-2-(trifluoromethyl)benzyl]-1H-indazol-5-yl}methylidene)-4-oxo-4,5-dihydro-1,3-thiazol-2-yl]-5-(hydroxymethyl)pyrrolidin-3-yl}acetamide] | 0.02
4 | O=C1CN(C2=NC(=O)/C(=C/c3ccc4c(cnn4Cc4ccc(Cl)cc4C(F)(F)F)c3)S2)C1 [Example 102, 5-[1-(4-Chloro-2-trifluoromethyl-benzyl)-1H-indazol-5-ylmethylene]-2-(3-oxo-azetidin-1-yl)-thiazol-4-one] | 0.022
5 | CN1CCN(C2=NC(=O)/C(=C/c3ccc4c(cnn4Cc4ccc(C(F)(F)F)cc4C(F)(F)F)c3)S2)CC1(C)C [Example 219, 5-({1-[2,4-Bis(trifluoromethyl)benzyl]-1H-indazol-5-yl}methylidene)-2-(3,3,4-trimethylpiperazin-1-yl)-1,3-thiazol-4(5H)-one] | 0.023
6 | O=C1N=C(N2CCC(C(=O)NS(=O)(=O)N3CCCC3)CC2)S/C1=C\c1ccc2c(cnn2Cc2ccc(Cl)cc2C(F)(F)F)c1 [Example 174, Pyrrolidine-1-sulfonic acid (1-{5-[1-(4-chloro-2-trifluoromethyl-benzyl)-1H-indazol-5-ylmethylene]-4-oxo-4,5-dihydro-thiazol-2-yl}-piperidine-4-carbonyl)-amide] | 0.0581
7 | CCOC(=O)CN1CCN(C2=NC(=O)/C(=C/c3ccc4c(cnn4Cc4ccc(Cl)cc4C(F)(F)F)c3)S2)CC1 [Example 127] | 0.029
8 | Cc1nn(Cc2ccc(C(F)(F)F)cc2C(F)(F)F)c2ccc(/C=C3\SC(N4CCO[C@H](CO)C4)=NC3=O)cc12 [Example 180, 5-[1-(2,4-Bis-trifluoromethyl-benzyl)-3-methyl-1H-indazol-5-ylmethylene]-2-(2-(S)-hydroxymethyl-morpholin-4-yl)-thiazol-4-one] | 0.021
9 | COCCN1C[C@@H]2C[C@H]1CN2C1=NC(=O)/C(=C/c2ccc3c(cnn3Cc3ccc(Cl)cc3C(F)(F)F)c2)S1 [Example 85, 5-[1-(4-Chloro-2-trifluoromethyl-benzyl)-1H-indazol-5-ylmethylene]-2-[5-(2-methoxy-ethyl)-2S,5S-diaza-bicyclo[2.2.1]hept-2-yl]-thiazol-4-one] | 0.0086
10 | NC1(C(=O)O)CCN(C2=NC(=O)/C(=C/c3ccc4c(cnn4Cc4ccc(Cl)cc4C(F)(F)F)c3)S2)CC1 [Example 154, 4-Amino-1-{5-[1-(4-chloro-2-trifluoromethyl-benzyl)-1H-indazol-5-ylmethylene]-4-oxo-4,5-dihydro-thiazol-2-yl}-piperidine-4-carboxylic acid] | 0.0262
11 | COC[C@@H]1CN(C2=NC(=O)/C(=C/c3ccc4c(cnn4Cc4ccc(C(F)(F)F)cc4C(F)(F)F)c3)S2)CCN1 [Example 211, 5-({1-[2,4-Bis(trifluoromethyl)benzyl]-1H-indazol-5-yl}methylidene)-2-[3-(S)-(methoxymethyl)piperazin-1-yl]-1,3-thiazol-4(5H)-one] | 0.031
12 | COC1CCN(C2=NC(=O)/C(=C/c3ccc4c(cnn4Cc4ccc(Cl)cc4C(F)(F)F)c3)S2)CC1 [Example 112, 5-[1-(4-Chloro-2-trifluoromethyl-benzyl)-1H-indazol-5-ylmethylene]-2-(4-methoxy-piperidin-1-yl)-thiazol-4-one] | 0.029
13 | N#Cc1ccc(Cn2ncc3cc(/C=C4\SC(N5CCN(CCO)CC5)=NC4=O)ccc32)c(C(F)(F)F)c1 [Compound 9, 4-(5-{2-[4-(2-Hydroxy-ethyl)-piperazin-1-yl]-4-oxo-4H-thiazol-5-ylidenemethyl}-indazol-1-ylmethyl)-3-trifluoromethyl-benzonitrile] | 0.0575
14 | O=C(O)CN1CCN(C2=NC(=O)/C(=C/c3ccc4c(cnn4Cc4ccc(C(F)(F)F)cc4C(F)(F)F)c3)S2)CC1 [Example 119] | 0.014
15 | CC(C)(O)c1ccc(Cn2ncc3cc(/C=C4\SC(N5CCC(C(=O)O)CC5)=NC4=O)ccc32)c(C(F)(F)F)c1 [Example 245] | 0.235
16 | CN1CCN(C2=NC(=O)/C(=C/c3ccc4c(cnn4Cc4ccc(S(C)(=O)=O)cc4Cl)c3)S2)CC1 [Compound 17, 5-[1-(2-Chloro-4-methanesulfonyl-benzyl)-1H-indazol-5-ylmethylene]-2-(4-methyl-piperazin-1-yl)-thiazol-4-one] | > 4
17 | COCC(=O)N1C[C@@H]2C[C@H]1CN2C1=NC(=O)/C(=C/c2ccc3c(cnn3Cc3ccc(Cl)cc3C(F)(F)F)c2)S1 [Example 89, 5-[1-(4-Chloro-2-trifluoromethyl-benzyl)-1H-indazol-5-ylmethylene]-2-[5-(2-methoxy-acetyl)-2S,5S-diaza-bicyclo[2.2.1]hept-2-yl]-thiazol-4-one] | 0.0047
18 | O=C1N=C(N2CCN(C3CC3)CC2)S/C1=C\c1ccc2c(cnn2Cc2ccc(Cl)cc2C(F)(F)F)c1 [Example 121, 5-[1-(4-Chloro-2-trifluoromethyl-benzyl)-1H-indazol-5-ylmethylene]-2-(4-cyclopropyl-piperazin-1-yl)-thiazol-4-one] | 0.0253
19 | O=C1N=C(N2CC3COC(=O)C3C2)S/C1=C\c1ccc2c(cnn2Cc2ccc(Cl)cc2C(F)(F)F)c1 (centres unmarked) [Example 144, 5-{5-[1-(4-Chloro-2-trifluoromethyl-benzyl)-1H-indazol-5-ylmethylene]-4-oxo-4,5-dihydro-thiazol-2-yl}-hexahydro-furo[3,4-c]pyrrol-1-one] | 0.014
20 | COC(=O)CCNC(=O)C1CN(C2=NC(=O)/C(=C/c3ccc4c(cnn4Cc4ccc(C(F)(F)F)cc4C(F)(F)F)c3)S2)C1 [Example 153, 3-[(1-{5-[1-(2,4-Bis-trifluoromethyl-benzyl)-1H-indazol-5-ylmethylene]-4-oxo-4,5-dihydro-thiazol-2-yl}-azetidine-3-carbonyl)-amino]-propionic acid methyl ester] | 0.044
21 | O=C1N=C(N2C[C@H](O)C[C@H]2C(=O)O)S/C1=C\c1ccc2c(cnn2Cc2ccc(Cl)cc2C(F)(F)F)c1 [Compound 11, 1-{5-[1-(4-Chloro-2-trifluoromethyl-benzyl)-1H-indazol-5-ylmethylene]-4-oxo-4,5-dihydro-thiazol-2-yl}-4-(R)-hydroxy-pyrrolidine-2-(S)-carboxylic acid] | 0.057
22 | C[C@@H]1CN(C2=NC(=O)/C(=C/c3ccc4c(cnn4Cc4ccc(C(F)(F)F)cc4C(F)(F)F)c3)S2)C[C@H](C)N1C [Example 239, 5-({1-[2,4-Bis(trifluoromethyl)benzyl]-1H-indazol-5-yl}methylidene)-2-((3R,5S)-3,4,5-trimethylpiperazin-1-yl)-1,3-thiazol-4(5H)-one] | 0.018
23 | O=C1N=C(N2CCC(C(=O)O)CC2)S/C1=C\c1ccc2c(cnn2Cc2ccc(F)cc2C(F)(F)F)c1 [Example 176, 1-{5-[1-(4-Fluoro-2-trifluoromethyl-benzyl)-1H-indazol-5-ylmethylene]-4-oxo-4,5-dihydro-thiazol-2-yl}-piperidine-4-carboxylic acid] | 0.139
24 | CC[C@H]1CN(C2=NC(=O)/C(=C/c3ccc4c(cnn4Cc4ccc(Cl)cc4C(F)(F)F)c3)S2)CCN1 (stereo in doubt) [Example 123, 5-[1-(4-Chloro-2-trifluoromethyl-benzyl)-1H-indazol-5-ylmethylene]-2-(3-ethyl-piperazin-1-yl)-thiazol-4-one] | 0.005
25 | O=C1N=C(N2CCN(CC(F)F)CC2)S/C1=C\c1ccc2c(cnn2Cc2ccc(Cl)cc2C(F)(F)F)c1 [Example 61, 5-[1-(4-Chloro-2-trifluoromethyl-benzyl)-1H-indazol-5-ylmethylene]-2-[4-(2,2-difluoro-ethyl)-piperazin-1-yl]-thiazol-4-one] | 0.0196
26 | C[C@@H]1CN(C2=NC(=O)/C(=C/c3ccc4c(cnn4Cc4ccc(C(C)(C)O)cc4Cl)c3)S2)C[C@H](C)N1 [Example 233, 5-({1-[2-Chloro-4-(1-hydroxy-1-methylethyl)benzyl]-1H-indazol-5-yl}methylidene)-2-(3,5-(cis)-dimethylpiperazin-1-yl)-1,3-thiazol-4(5H)-one] | 0.127
